Measured values reported in patent publication EP4104902B1, “COMPOUNDS AND M[…] SAME” (priority 2020, dated 2021).

Test system: recombinant rabies virus 1088 strain expressing Gaussia Luciferase (GLuc) (1088/GLuc)
Format: cell-based
Settings: read-out: Anti-rabies activity

| Structure (SMILES) | IC50 |
| --- | --- |
| CC(C)CNC(=O)[C@]12NC[C@@H]3C[C@H]1CN(CC(C)C)[C@H]2[C@@H]3Cc1ccccc1 (relative stereo) [IB-3] | 10 to 30 µM |
| CC(C)CNC(=O)[C@]12NC[C@@H]3C[C@H]1CN(Cc1ccccc1)[C@H]2[C@@H]3CC(C)C (relative stereo) [IB-4] | 10 to 30 µM |
| CC(C)C[C@@H]1[C@@H]2CN[C@@]3(C(=O)NCc4ccccc4)[C@@H](C2)CN(CC(C)C)[C@@H]13 (relative stereo) [IB-5] | 10 to 30 µM |
| CC(C)CCN1C[C@@H]2C[C@H]3CN[C@]2(C(=O)NCc2ccccc2)[C@@H]1[C@@H]3Cc1ccccc1 (relative stereo) [IB-9] | 10 to 30 µM |
| CC(C)CN1C[C@@H]2C[C@H]3CN[C@]2(C(=O)NCCc2ccccc2)[C@@H]1[C@@H]3Cc1ccccc1 (relative stereo) [IB-12] | 10 to 30 µM |
| Cc1cccc(C[C@@H]2[C@@H]3CN[C@@]4(C(=O)NCc5ccccc5)[C@@H](C3)CN(CC(C)C)[C@@H]24)c1 (relative stereo) [IB-13] | 10 to 30 µM |
| Cc1cccc(CNC(=O)[C@]23NC[C@@H]4C[C@H]2CN(CC(C)C)[C@H]3[C@@H]4Cc2ccccc2)c1 (relative stereo) [IB-15] | 10 to 30 µM |
| O=C(NCc1ccccc1)[C@]12NC[C@H]3C[C@H]1CN(Cc1cccc4ccccc14)[C@H]2[C@@H]3Cc1ccccc1 (relative stereo) [IB-42, (3S*,3aS*,6S*,7R*,7aS*)-N,7-dibenzyl-1-(naphthalen-1-ylmethyl)octahydro-3aH-3,6-methanopyrrolo[3,2-b]pyridine-3a-carboxamide] | 10 to 30 µM |
| CC(C)C[C@@H]1[C@@H]2CN[C@@]3(C(=O)NCc4cccc5ccccc45)[C@@H](C2)CN(CC(N)=O)[C@@H]13 (relative stereo) [IB-81] | 10 to 30 µM |
| NC(=O)CN1C[C@@H]2C[C@H]3CN[C@]2(C(=O)NCc2cccc4ccccc24)[C@@H]1[C@@H]3Cc1ccccc1 (relative stereo) [IB-82] | 10 to 30 µM |
| NC(=O)CN1C[C@@H]2C[C@H]3CN[C@]2(C(=O)NCc2cccc4ccccc24)[C@@H]1[C@@H]3Cc1ccc(O)cc1 (relative stereo) [IB-83] | 10 to 30 µM |
| CC(C)CC[C@@H]1[C@@H]2CN[C@@]3(C(=O)NCc4cccc5ccccc45)[C@@H](C2)CN(CC(N)=O)[C@@H]13 (relative stereo) [IB-84] | 10 to 30 µM |
| CC(C)CC[C@@H]1[C@@H]2CN[C@@]3(C(=O)NCCc4ccccc4)[C@@H](C2)CN(CC(N)=O)[C@@H]13 (relative stereo) [IB-89] | < 5 µM |
| NC(=O)CN1C[C@@H]2C[C@H]3CN[C@]2(C(=O)NCc2cccc4ccccc24)[C@@H]1[C@@H]3Cc1cccc2ccccc12 (relative stereo) [IB-90] | < 5 µM |
| NC(=O)CN1C[C@@H]2C[C@H]3CN[C@]2(C(=O)NCc2ccc(F)cc2)[C@@H]1[C@@H]3Cc1ccccc1 (relative stereo) [IB-92] | 10 to 30 µM |
| NC(=O)CN1C[C@@H]2C[C@H]3CN[C@]2(C(=O)NCc2ccc(F)cc2)[C@@H]1[C@@H]3CCc1ccccc1 (relative stereo) [IB-95] | < 5 µM |
| NC(=O)CN1C[C@@H]2C[C@H]3CN[C@]2(C(=O)NCc2ccc(F)cc2)[C@@H]1[C@@H]3Cc1cccc2ccccc12 (relative stereo) [IB-96] | 10 to 30 µM |
| NC(=O)CN1C[C@@H]2C[C@H]3CN[C@]2(C(=O)NCCc2ccccc2)[C@@H]1[C@@H]3Cc1cccc2ccccc12 (relative stereo) [IB-97] | < 5 µM |
| CC(C)CCNC(=O)[C@]12NC[C@@H]3C[C@H]1CN(CC(N)=O)[C@H]2[C@@H]3CCc1ccccc1 (relative stereo) [IB-102] | < 5 µM |
| CC(C)CCNC(=O)[C@]12NC[C@@H]3C[C@H]1CN(CC(N)=O)[C@H]2[C@@H]3Cc1cccc2ccccc12 (relative stereo) [IB-103] | 10 to 30 µM |
| CCCCCCNC(=O)[C@]12NC[C@@H]3C[C@H]1CN(CC(N)=O)[C@H]2[C@@H]3Cc1ccccc1 (relative stereo) [IB-105] | 10 to 30 µM |
| CC(C)C[C@@H]1[C@@H]2CN[C@@]3(C(=O)NCc4cccc5ccccc45)[C@@H](C2)CN(CCCNC(=N)N)[C@@H]13 (relative stereo) [IB-164, (3S*, 3aS*, 6R*, 7R*, 7aS*)-1-(3-guanidinopropyl)-7-isobutyl-N-(naphthalen-1-ylmethyl)octahydro-3aH-3,6-methanopyrrolo[3,2-b]pyridine-3a-carboxamide] | < 5 µM |
| CCCCCCNC(=O)[C@]12NC[C@@H]3C[C@H]1CN(CCCNC(=N)N)[C@H]2[C@@H]3CCc1ccccc1 (relative stereo) [IB-174] | 10 to 30 µM |
| CC(C)C[C@@H]1[C@@H]2CN[C@@]3(C(=O)NC(C)C)[C@@H](C2)CN(CCCNC(=N)N)[C@@H]13 (relative stereo) [IB-176] | 10 to 30 µM |
| CC(C)NC(=O)[C@]12NC[C@@H]3C[C@H]1CN(CCCNC(=N)N)[C@H]2[C@@H]3CCc1ccccc1 (relative stereo) [IB-179] | 10 to 30 µM |
| N=C(N)NCCCN1C[C@@H]2C[C@H]3CN[C@]2(C(=O)NCc2ccc(F)cc2)[C@@H]1[C@@H]3Cc1ccccc1 (relative stereo) [IB-182] | 10 to 30 µM |
| CC(C)CNC(=O)[C@]12NC[C@@H]3C[C@H]1CN(CC(C)C)[C@H]2[C@@H]3CCCNC(=N)N (relative stereo) [IB-187] | 10 to 30 µM |

| Structure (SMILES) | IC50 |
| --- | --- |
| CC(C)CCNC(=O)[C@]12NC[C@@H]3C[C@H]1CN(CC(C)C)[C@H]2[C@@H]3CCCNC(=N)N (relative stereo) [IB-192] | < 5 µM |
| CC(C)CNC(=O)[C@]12NC[C@@H]3C[C@H]1CN(Cc1ccccc1)[C@H]2[C@@H]3CCCNC(=N)N (relative stereo) [IB-198] | 10 to 30 µM |
| N=C(N)NCCC[C@@H]1[C@@H]2CN[C@@]3(C(=O)NCCc4ccccc4)[C@@H](C2)CN(Cc2ccccc2)[C@@H]13 (relative stereo) [IB-247] | 10 to 30 µM |
| CCCCCCNC(=O)[C@]12NC[C@@H]3C[C@H]1CN(Cc1ccccc1)[C@H]2[C@@H]3CCCNC(=N)N (relative stereo) [IB-249] | 10 to 30 µM |
| N=C(N)NCCC[C@@H]1[C@@H]2CN[C@@]3(C(=O)NCc4ccc(F)cc4)[C@@H](C2)CN(Cc2ccccc2)[C@@H]13 (relative stereo) [IB-250] | 10 to 30 µM |
| CCCCCCNC(=O)[C@]12NC[C@@H]3C[C@H]1CN(CCc1ccccc1)[C@H]2[C@@H]3CCCNC(=N)N (relative stereo) [IB-256] | 10 to 30 µM |
| N=C(N)NCCC[C@@H]1[C@@H]2CN[C@@]3(C(=O)NCc4ccccc4)[C@@H](C2)CN(Cc2ccc(F)cc2)[C@@H]13 (relative stereo) [IB-260] | 10 to 30 µM |
| N=C(N)NCCC[C@@H]1[C@@H]2CN[C@@]3(C(=O)NCCc4ccccc4)[C@@H](C2)CN(Cc2ccc(F)cc2)[C@@H]13 (relative stereo) [IB-262] | 10 to 30 µM |
| CC(C)CC[C@@H]1[C@@H]2CN[C@@]3(C(=O)NCCC(N)=O)[C@@H](C2)CN(Cc2ccccc2)[C@@H]13 (relative stereo) [IB-274] | 10 to 30 µM |
| N=C(N)NCCCNC(=O)[C@]12NC[C@@H]3C[C@H]1CN(Cc1ccccc1)[C@H]2[C@@H]3Cc1ccccc1 (relative stereo) [IB-276] | 10 to 30 µM |
| N=C(N)NCCCNC(=O)[C@]12NC[C@@H]3C[C@H]1CN(Cc1ccccc1)[C@H]2[C@@H]3CCc1ccccc1 (relative stereo) [IB-279] | 10 to 30 µM |
| N=C(N)NCCCNC(=O)[C@]12NC[C@@H]3C[C@H]1CN(Cc1ccccc1)[C@H]2[C@@H]3Cc1cccc2ccccc12 (relative stereo) [IB-280] | 10 to 30 µM |
| N=C(N)NCCCN1C[C@@H]2C[C@H]3CN[C@]2(C(=O)NCc2ccccc2)[C@@H]1[C@@H]3Cc1cccc2ccccc12 (relative stereo) [IB-300] | 10 to 30 µM |
| N=C(N)NCCCN1C[C@@H]2C[C@H]3CN[C@]2(C(=O)NCCc2ccccc2)[C@@H]1[C@@H]3Cc1cccc2ccccc12 (relative stereo) [IB-327] | 10 to 30 µM |
| CC(C)CC[C@@H]1[C@@H]2CN[C@@]3(C(=O)NCCC(N)=O)[C@@H](C2)CN(CCc2ccccc2)[C@@H]13 (relative stereo) [IB-342] | 10 to 30 µM |
| N=C(N)NCCCNC(=O)[C@]12NC[C@@H]3C[C@H]1CN(CCc1ccccc1)[C@H]2[C@@H]3Cc1ccccc1 (relative stereo) [IB-344] | 10 to 30 µM |
| CC(C)CC[C@@H]1[C@@H]2CN[C@@]3(C(=O)NCCCNC(=N)N)[C@@H](C2)CN(CCc2ccccc2)[C@@H]13 (relative stereo) [IB-346] | 10 to 30 µM |
| N=C(N)NCCCNC(=O)[C@]12NC[C@@H]3C[C@H]1CN(CCc1ccccc1)[C@H]2[C@@H]3Cc1cccc2ccccc12 (relative stereo) [IB-347] | 10 to 30 µM |
| CC(C)CC[C@@H]1[C@@H]2CN[C@@]3(C(=O)NCCC(N)=O)[C@@H](C2)CN(Cc2cccc4ccccc24)[C@@H]13 (relative stereo) [IB-349] | < 5 µM |
| CC(C)C[C@@H]1[C@@H]2CN[C@@]3(C(=O)NCCCNC(=N)N)[C@@H](C2)CN(Cc2cccc4ccccc24)[C@@H]13 (relative stereo) [IB-350] | 10 to 30 µM |
| N=C(N)NCCCNC(=O)[C@]12NC[C@@H]3C[C@H]1CN(Cc1cccc4ccccc14)[C@H]2[C@@H]3Cc1ccccc1 (relative stereo) [IB-351] | 10 to 30 µM |
| CC(C)CC[C@@H]1[C@@H]2CN[C@@]3(C(=O)NCCCNC(=N)N)[C@@H](C2)CN(Cc2cccc4ccccc24)[C@@H]13 (relative stereo) [IB-353] | < 5 µM |
| N=C(N)NCCCNC(=O)[C@]12NC[C@@H]3C[C@H]1CN(Cc1cccc4ccccc14)[C@H]2[C@@H]3CCc1ccccc1 (relative stereo) [IB-354] | < 5 µM |
| CC(C)CC[C@@H]1[C@@H]2CN[C@@]3(C(=O)NCCC(N)=O)[C@@H](C2)CN(CC2CCCCC2)[C@@H]13 (relative stereo) [IB-357] | 10 to 30 µM |
| CC(C)CC[C@@H]1[C@@H]2CN[C@@]3(C(=O)NCCCNC(=N)N)[C@@H](C2)CN(CC2CCCCC2)[C@@H]13 (relative stereo) [IB-361] | 10 to 30 µM |
| N=C(N)NCCCNC(=O)[C@]12NC[C@@H]3C[C@H]1CN(CC1CCCCC1)[C@H]2[C@@H]3CCc1ccccc1 (relative stereo) [IB-362] | < 5 µM |
| CC(C)CC[C@@H]1[C@@H]2CN[C@@]3(C(=O)NCCC(N)=O)[C@@H](C2)CN(Cc2ccc(F)cc2)[C@@H]13 (relative stereo) [IB-365] | 10 to 30 µM |

Same assay, conditions: read-out: IC50

| Structure (SMILES) | IC50 |
| --- | --- |
| CC(C)CNC(=O)[C@]12NC[C@@H]3C[C@H]1CN(CC(C)C)[C@H]2[C@@H]3Cc1ccccc1 (relative stereo) [IB-3] | 19.6 µM |
| CC(C)CNC(=O)[C@]12NC[C@@H]3C[C@H]1CN(Cc1ccccc1)[C@H]2[C@@H]3CC(C)C (relative stereo) [IB-4] | 19.2 µM |
| CC(C)C[C@@H]1[C@@H]2CN[C@@]3(C(=O)NCc4ccccc4)[C@@H](C2)CN(CC(C)C)[C@@H]13 (relative stereo) [IB-5] | 18.2 µM |
| CC(C)CCN1C[C@@H]2C[C@H]3CN[C@]2(C(=O)NCc2ccccc2)[C@@H]1[C@@H]3Cc1ccccc1 (relative stereo) [IB-9] | 17 µM |
| CC(C)CN1C[C@@H]2C[C@H]3CN[C@]2(C(=O)NCCc2ccccc2)[C@@H]1[C@@H]3Cc1ccccc1 (relative stereo) [IB-12] | 15.5 µM |
| Cc1cccc(C[C@@H]2[C@@H]3CN[C@@]4(C(=O)NCc5ccccc5)[C@@H](C3)CN(CC(C)C)[C@@H]24)c1 (relative stereo) [IB-13] | 14.3 µM |
| Cc1cccc(CNC(=O)[C@]23NC[C@@H]4C[C@H]2CN(CC(C)C)[C@H]3[C@@H]4Cc2ccccc2)c1 (relative stereo) [IB-15] | 15.9 µM |
